Data on two compounds can be found in US10952992B2, “Methods of treating intraocular pressure with activators of Tie-2” (Aerpio Pharmaceuticals, Inc., priority 2015, dated 2021).

Counter-ions that a name gives are not always drawn.

Data set [1] in a line: In vitro diffusion across rabbit cornea and sclera in Franz cell. The format is in vitro ADME. Particulars: 1.5% of the sodium salt with 5% HPβCD in 50:50 D5W:sterile water.
The test system of data set [2] is intraocular pressure in patients with diabetic macular edema. Nature of the data set: Change in intraocular pressure from baseline, Compound 1 BID for 28 days (FIG. 1). As to conditions: doses greater than 15 mg BID, 28 Day EOT. It is filed as in vivo, human. The protocol: The difference in IOP was determined at the end of the trial, which was 28 days after treatment began (28 Day EOT). Changes in IOP were determined both in the study eye and the fellow eye.

Data set [3] has as its system eye. Briefly: Example 3 ophthalmic examination, modified McDonald-Shadduck scoring (tolerability). The format is in vivo, New Zealand White rabbits. Here is the method:
Prior to placement on study, each animal underwent an ophthalmic examination (slitlamp biomicroscopy and indirect ophthalmoscopy). Ocular findings were scored according to a modified McDonald-Shadduck Scoring System and recorded on a standardized data sheet. The acceptance criteria for placement on study were scores of “0” for all variables.
Ophthalmic examination (slit-lamp biomicroscopy only) was performed at baseline (prior to the start of dosing) and on Days 1, 4, and 8. Ocular findings were scored according to a modified McDonald-Shadduck Scoring System. A slit lamp was used to observe conjunctival discharge, […], […], the cornea, the surface area of cornea involvement, pannus, pupillary response, aqueous flare, cellular flare, iris involvement, and the lens. An indirect ophthalmoscope was used to observe the vitreous, vitral hemorrhage, retinal detachment, retinal hemorrhage, and choroidal/retinal inflammation. Animals were prepared for observation by using a solution (atropine, tropicaminde, or phenylephrine) to dilate the pupils.
Conjunctival discharge was defined as a whitish gray precipitate from the eye. Scoring was as follows. • 0=Normal, no discharge. • 1=Discharge above normal and present on the inner portion of the eye but not on the lids or hairs of the eyelids. • 2=Discharge is abundant, easily observed and has collected on the lids and hairs of the eyelids. • 3=Discharge has been flowing over the eyelids so as to wet the hairs substantially on the skin around the eye.
Conjunctival congestion causes the blood vessels of the eye to become enlarged. Scoring was as follows. • 0=Normal, may appear blanched to reddish pink without perilimbal injection (except at the 12:00 and 6:00 positions) with vessels of the palpebral and bulbar conjunctiva easily observed. • 1=A flushed, reddish color predominantly confined to the palpebral conjunctiva with some perilimbal injection but primarily confined to the lower and upper parts of the eye from the 4:00 to the 7:00 and 11:00 to 1:00 positions. • 2=Bright red color of the palpebral conjunctiva with accompanying perilimbal injection covering at least 75% of the circumference of the perilimbal region. • 3=Dark, beefy red color with congestion of both the bulbar and palpebral conjunctiva along with pronounced perilimbal injection and the presence of petechial on the conjunctiva. The petechial generally predominates along the nictitating membrane and upper palprebal conjunctiva.
Conjunctival swelling, defined as swelling of the conjunctiva, was scored as follows. • 0=Normal or no swelling of the conjunctival tissue. • 1=Swelling above normal without eversion of the eyelids (easily discerned by noting upper and lower eyelids are positioned as in the normal eye); swelling generally starts in the lower cul-de-sac near the inner canthus. • 2=Swelling with misalignment of the normal approximation of the lower and upper eyelids; primarily confined to the upper eyelid so that in the initial stages, the misapproximation of the eyelids begins by partial eversion of the upper eyelid. In this state the swelling is confined generally to the upper eyelid with some swelling in the lower cul-de-sac. • 3=Swelling definite with partial eversion of the upper and lower eyelids essentially equivalent. […] It is difficult to retract the lids and observe the perilimbal region.
Iris involvement was observed by checking the iris for hyperemia of the blood vessels. Scoring was as follows. • 0=Normal iris without any hyperemia of the blood vessels. • 1=Some loss of transparency. Only the epithelium and/or the anterior half of the stroma are involved. The underlying structures are clearly visible although some cloudiness may be readily apparent. • 2=Involvement of the entire thickness of the stroma. […]

The nature of data set [4]: Example 3 general health observations. As to conditions: Example 3, 7 days topical or subcutaneous dosing. It is filed as in vivo, New Zealand White rabbits. The protocol:
Animals were observed within their cages once daily throughout the study period. […] General health observations were recorded daily beginning on Day 1 and continuing throughout the course of the study.

The mark [5] stands for this setting: Day 1, Group 2 (0.45 mg/eye topical BID), N=5.

Consider `COC(=O)N[C@@H](Cc1ccccc1)C(=O)N[C@@H](Cc1ccc(NS(=O)(=O)O)cc1)c1csc(-c2cccs2)n1` [Compound 1], for which the “diffusion across rabbit cornea and sclera in Franz cell” value in data set [1] is “substantial diffusion”. The “change in IOP relative to pre-treatment baseline” value in data set [2] was “decreased IOP”.
As for `COC(=O)N[C@@H](Cc1ccccc1)C(=O)N[C@@H](Cc1ccc(NS(=O)(=O)O)cc1)c1csc(-c2cccs2)n1` [Compound 1 sodium salt], the “animals with mild conjunctival congestion (scores=1)” value in data set [3] (setting [5]) is “five”; in data set [3] (Day 1, Group 3 (1.2 mg/eye topical BID), N=5), “two”; in data set [3] (Day 1, Group 4 (1.2 mg/eye topical QD), N=5), “one”; in data set [3] (Day 1, Group 5 (10 mg/kg SC BID), N=5), “three”; in data set [3] (Day 4, Group 2 (0.45 mg/eye topical BID), N=5) it was “two”; in data set [3] (Day 4, Group 3 (1.2 mg/eye topical BID), N=5), “two”. In addition, the “animals with mild conjunctival congestion (scores=1)” value is “one” in data set [3] (Day 4, Group 4 (1.2 mg/eye topical QD), N=5) and “none” in data set [3] (Day 4, Group 5 (10 mg/kg SC BID), N=5). For the same compound, the “animals with mild conjunctival swelling” value in data set [3] (setting [5]) is on record as “one”. Further, the ocular anomalies result in data set [3] (Day 8, all groups) was “No ocular anomalies”. In addition, in data set [3] (Example 3), the “relation of mild conjunctival congestion to test article” value was “unrelated to the test article”. Besides, the “adverse effects on general health” value in data set [4] is “No adverse effects”.
